Measured values from BindingDB's records for doi:10.1016/j.bmcl.2008.10.099 (Bristol-Myers Squibb, 2008).

Biological target: Potassium voltage-gated channel subfamily A member 5 (Homo sapiens, UniProt P22460)
Assay: Inhibition of human Kv1.5 channel expressed in mouse L929 cells by EP voltage clamp technique

Potassium voltage-gated channel subfamily A member 5, sequence (P22460 whole entry): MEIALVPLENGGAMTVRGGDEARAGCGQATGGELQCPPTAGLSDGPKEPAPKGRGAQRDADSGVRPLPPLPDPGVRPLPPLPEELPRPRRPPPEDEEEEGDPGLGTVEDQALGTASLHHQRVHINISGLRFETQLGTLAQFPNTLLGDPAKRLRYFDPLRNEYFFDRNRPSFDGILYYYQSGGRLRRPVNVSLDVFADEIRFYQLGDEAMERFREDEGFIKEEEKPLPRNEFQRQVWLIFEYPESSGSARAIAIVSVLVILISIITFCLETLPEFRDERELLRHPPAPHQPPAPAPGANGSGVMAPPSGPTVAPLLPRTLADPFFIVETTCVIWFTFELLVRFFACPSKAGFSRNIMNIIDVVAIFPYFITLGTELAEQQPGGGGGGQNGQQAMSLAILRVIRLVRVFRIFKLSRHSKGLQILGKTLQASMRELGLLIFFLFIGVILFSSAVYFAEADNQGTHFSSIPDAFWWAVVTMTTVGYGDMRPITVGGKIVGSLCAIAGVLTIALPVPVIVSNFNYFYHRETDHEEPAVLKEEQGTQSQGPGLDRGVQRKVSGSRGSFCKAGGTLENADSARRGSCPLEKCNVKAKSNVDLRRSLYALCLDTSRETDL

Row | Structure (SMILES) | IC50 [nM]
1 | CCN(CC)C(=O)C1C(C)=Nc2ccnn2C1c1ccc(Cl)c(Cl)c1 (stereo unspecified) [7-(3,4-dichlorophenyl)-N,N-diethyl-5-methyl-4,7-dihydropyrazolo[1,5-a]pyrimidine-6-carboxamide] | 440
2 | CC1=Nc2ccnn2C(c2sc3ccccc3c2C)C1C(=O)N1CCN(c2ccc(F)cc2)CC1 (stereo unspecified) [(4-(4-fluorophenyl)piperazin-1-yl)(5-methyl-7-(3-methylbenzo[b]thiophen-2-yl)-4,7-dihydropyrazolo[1,5-a]pyrimidin-6-yl)methanone] | 200
3 | CC1=Nc2ccnn2C(c2cccc(Cl)c2Cl)C1C(=O)N1CCN(c2ccc(F)cc2)CC1 (stereo unspecified) [(7-(2,3-dichlorophenyl)-5-methyl-4,7-dihydropyrazolo[1,5-a]pyrimidin-6-yl)(4-(4-fluorophenyl)piperazin-1-yl)methanone] | 160
4 | COC[C@@H]1CCCN1C(=O)C1C(C)=Nc2ccnn2C1c1ccc(Cl)c(Cl)c1 (stereo partly drawn) [(7-(3,4-dichlorophenyl)-5-methyl-4,7-dihydropyrazolo[1,5-a]pyrimidin-6-yl)((S)-2-(methoxymethyl)pyrrolidin-1-yl)methanone] | 200
5 | CC1=Nc2ccnn2C(c2cccc(Cl)c2)C1C(=O)N1CCN(c2ccc(F)cc2)CC1 (stereo unspecified) [(7-(3-chlorophenyl)-5-methyl-4,7-dihydropyrazolo[1,5-a]pyrimidin-6-yl)(4-(4-fluorophenyl)piperazin-1-yl)methanone] | 190
6 | CC1=Nc2ccnn2C(c2ccc(Cl)cc2)C1C(=O)N1CCN(c2ccc(F)cc2)CC1 (stereo unspecified) [(7-(4-chlorophenyl)-5-methyl-4,7-dihydropyrazolo[1,5-a]pyrimidin-6-yl)(4-(4-fluorophenyl)piperazin-1-yl)methanone] | 440
7 | CC1=Nc2ccnn2C(c2cc3ccccc3o2)C1C(=O)N1CCN(c2ccc(F)cc2)CC1 (stereo unspecified) [(7-(benzofuran-2-yl)-5-methyl-4,7-dihydropyrazolo[1,5-a]pyrimidin-6-yl)(4-(4-fluorophenyl)piperazin-1-yl)methanone] | 160
8 | CC1=Nc2ccnn2[C@H](c2cccc(Cl)c2Cl)C1C(=O)N1CCN(c2ccc(F)cc2)CC1 (stereo partly drawn) [(S)-(7-(2,3-dichlorophenyl)-5-methyl-4,7-dihydropyrazolo[1,5-a]pyrimidin-6-yl)(4-(4-fluorophenyl)piperazin-1-yl)methanone] | 160
9 | CC1=Nc2ccnn2C(c2ccc(Cl)c(Cl)c2)C1C(=O)NCc1ccccc1 (stereo unspecified) [N-benzyl-7-(3,4-dichlorophenyl)-5-methyl-4,7-dihydropyrazolo[1,5-a]pyrimidine-6-carboxamide] | 160
10 | CCCCNC(=O)C1C(C)=Nc2ccnn2C1c1ccc(Cl)c(Cl)c1 (stereo unspecified) [N-butyl-7-(3,4-dichlorophenyl)-5-methyl-4,7-dihydropyrazolo[1,5-a]pyrimidine-6-carboxamide] | 440
11 | CC1=Nc2ccnn2C(c2ccc(Cl)c(Cl)c2)C1C(=O)N1CCCCCC1 (stereo unspecified) [azepan-1-yl(7-(3,4-dichlorophenyl)-5-methyl-4,7-dihydropyrazolo[1,5-a]pyrimidin-6-yl)methanone] | 190
